Reference: US7914776B2, “Solid dispersions of opioid antagonists” (Adolor Corporation, priority 2005, dated 2011)
“Also recorded” adds a separate entry of the source. Read-outs that look alike come from different tables or passages of the source.

Columns and labels:
[1] = Moisture sorption analysis; type: physicochemical; conditions: for Moisture Sorption: weight lost upon desorption: between 95% and 5% RH; for XRPD after Moisture Sorption: solid remaining after moisture sorption analysis
[2] = type: physicochemical
Experimental: Amorphous samples were exposed to ambient, 53%, and 97% relative humidities at ambient temperature (about 10° C. to about 30° C.). The samples were also exposed to 75% relative humidity at 40° C. The samples were stressed for up to 60 days. Samples were taken periodically throughout the study and analyzed by x-ray powder diffraction (XRPD) for presence of crystallinity.
Relative humidity stress studies were performed to assess the stability of amorphous alvimopan and solid dispersions. Studies were performed at ambient, 53%, and 97% relative humidity at ambient temperature. Ambient relative humidity and temperature was measured as approximately 24% and 22° C. Samples were also stressed at 75% relative humidity at 40° C. Samples were analyzed by XRPD for the presence of crystallinity.

[3] = listed as Amorphous Alvimopan Prepared by Rotary Evaporation
[4] = listed as rotary evaporated sample
[5] = 53% Relative Humidity and Ambient Temperature, 7 days stressed
[6] = 53% Relative Humidity and Ambient Temperature, 17 days stressed
[7] = 53% Relative Humidity and Ambient Temperature, 30 days stressed
[8] = 53% Relative Humidity and Ambient Temperature, 60 days stressed
[9] = 75% Relative Humidity and 40° C., 7 days stressed
[10] = 97% Relative Humidity and Ambient Temperature, 7 days stressed
[11] = ambient conditions (approximately 24% relative humidity and 22° C.), 7 days stressed
[12] = ambient conditions (approximately 24% relative humidity and 22° C.), 17 days stressed
[13] = ambient conditions (approximately 24% relative humidity and 22° C.), 30 days stressed
[14] = ambient conditions (approximately 24% relative humidity and 22° C.), 60 days stressed
[15] = listed as Amorphous [[2(S)-[[4(R)-(3-hydroxyphenyl)-3(R),4-dimethyl-piperidinyl]methyl]-1-
[16] = listed as Amorphous [[2(S)-[[4(R)-(3-hydroxyphenyl)-3(R),4-dimethyl-piperidinyl]methyl]-1-, sodium salt
[17] = ambient conditions (approximately 24% relative humidity and 22° C.), 43 days stressed

SMILES | Stability conclusion of the stress studies [2] | XRPD Result [2, 5] | XRPD Result [2, 6] | XRPD Result [2, 7] | XRPD Result [2, 8] | XRPD Result [2, 9] | Observation [2, 10] | XRPD Result [2, 10] | XRPD Result [2, 11] | XRPD Result [2, 12] | Observation [2, 13] | XRPD Result [2, 13] | XRPD Result [2, 14] | XRPD after Moisture Sorption [1, 16] | other results
C[C@H]1CN(C[C@H](Cc2ccccc2)C(=O)NCC(=O)O)CC[C@@]1(C)c1cccc(O)c1 [ethanol roto evap at 30° C.; 100° C. vac oven] [[[2(S)-[[4(R)-(3-hydroxyphenyl)-3(R),4-dimethyl-piperidinyl]methyl]-1-oxo-3-phenylpropyl]amino]acetic acid] | showed crystallization under this same stress condition | amorphous | amorphous | amorphous | amorphous | PC; Form A | white solids; some | Form A | amorphous | amorphous | white solids, flakes; | amorphous | amorphous | – | Moisture Sorption: weight gain between 5% and 95% RH [1, 3]: 13.8% weight gain between 5% and 95% RH; Moisture Sorption: weight gain between 5% and 95% RH [1, 4]: ~13%; Moisture Sorption: weight lost upon desorption [1, 3]: 12.2% weight lost upon desorption; Moisture Sorption: lost upon equilibration at 5% RH [1, 3]: 0.6% lost upon equilibration at 5% RH; XRPD after Moisture Sorption [1, 3]: low crystalline; amorphous, Form A, or Form B; XRPD after Moisture Sorption [1, 4]: crystallized to low crystalline material; Observation [2, 8]: white solids,; Outcome of stress ([2]; 75% RH and 40° C., listed as Amorphous [[2(S)-[[4(R)-(3-hydroxyphenyl)-3(R),4-dimethyl-piperidinyl]methyl]-1-): crystallized to alvimopan Form A; Observation [2, 9]: white solids;
C[C@H]1CN(C[C@H](Cc2ccccc2)C(=O)NCC(=O)O)CC[C@@]1(C)c1cccc(O)c1 [lyophilized; 100° C. vac oven, [[2(S)-[[4(R)-(3-hydroxyphenyl)-3(R),4-dimethyl-piperidinyl]methyl]-1-oxo-3-phenylpropyl]amino]acetic acid] | stable at 75% relative humidity and 40 °C | amorphous | amorphous | amorphous | amorphous | amorphous | off-white solids; some | Form A | amorphous | amorphous | – | amorphous | amorphous | – | Moisture Sorption: weight gain between 5% and 95% RH [1, 15]: 13.0% weight gain between 5% and 95% RH; Moisture Sorption: weight gain between 5% and 95% RH ([1]; listed as lyophilized sample): ~13%; Moisture Sorption: weight lost upon desorption [1, 15]: 10.8% weight lost upon desorption; Moisture Sorption: lost upon equilibration at 5% RH [1, 15]: 0.2% lost upon equilibration at 5% RH; XRPD after Moisture Sorption [1, 15]: amorphous; XRPD after Moisture Sorption ([1]; listed as lyophilized sample): remained amorphous; Outcome of stress ([2]; 75% RH and 40° C., listed as amorphous alvimopan sample prepared by lyophilization): Crystallization was not observed; XRPD Result ([2]; 75% Relative Humidity and 40° C., 17 days stressed): amorphous; XRPD Result ([2]; 75% Relative Humidity and 40° C., 30 days stressed): amorphous; XRPD Result ([2]; 75% Relative Humidity and 40° C., 60 days stressed): amorphous
C[C@H]1CN(C[C@H](Cc2ccccc2)C(=O)NCC(=O)[O-])CC[C@@]1(C)c1cccc(O)c1.[Na+] [2:1 sodium carbonate attempt; lyophilized; 100° C. vac oven] [[[2(S)-[[4(R)-(3-hydroxyphenyl)-3(R),4-dimethyl-piperidinyl]methyl]-1-oxo-3-phenylpropyl]amino]acetic acid sodium salt] | – | – | – | – | – | – | – | – | – | – | – | – | – | deliquescence of the material; also recorded: sample deliquesced | Moisture Sorption: lost upon equilibration at 5% RH [1, 16]: 0.1% lost upon equilibration at 5% RH; XRPD Result ([2]; 53% Relative Humidity and Ambient Temperature, 13 days stressed): amorphous; XRPD Result ([2]; 53% Relative Humidity and Ambient Temperature, 43 days stressed): amorphous; Observation ([2]; 75% Relative Humidity and 40° C., 3 days stressed, sodium salt): deliquescence;; Outcome of stress ([2]; 97% relative humidity and ambient temperature, listed as 2:1 amorphous [[2(S)-[[4(R)-(3-hydroxyphenyl)-3(R),4-dimethyl-piperidinyl]methyl, sodium salt): deliquesced within three days of exposure; Observation ([2]; ambient conditions (approximately 24% relative humidity and 22° C.), 7 days stressed, sodium salt): off-white, yellow; XRPD Result ([2]; ambient conditions (approximately 24% relative humidity and 22° C.), 13 days stressed): amorphous + peak; XRPD Result ([2]; ambient conditions (approximately 24% relative humidity and 22° C.), 30 days stressed, sodium salt): amorphous + peak;; Observation [2, 17]: white and yellow; XRPD Result [2, 17]: amorphous + peak
C[C@H]1CN(C[C@H](Cc2ccccc2)C(=O)NCC(=O)[O-])CC[C@@]1(C)c1cccc(O)c1.[Na+] [[[2(S)-[[4(R)-(3-hydroxyphenyl)-3(R),4-dimethyl-piperidinyl]methyl]-1-oxo-3-phenylpropyl]amino]acetic acid sodium salt] | – | amorphous + peak | amorphous + peak | amorphous + peak | amorphous + peak | – | white solids; slight | Form A | amorphous + peak | amorphous + peak | off-white, yellow | amorphous + peak | – | peak + amorphous | Moisture Sorption: lost upon equilibration at 5% RH [1]: 2.8% lost upon equilibration at 5% RH; Outcome of stress ([2]; 75% RH and 40° C.): deliquesced after three days of exposure; Outcome of stress ([2]; 97% relative humidity and ambient temperature): likely crystallized to Form A; Observation [2, 12]: off-white, yellow
